# In US12291516B2, “Substituted 1-amino-1H-imidazole-5-carboxamide as Bruton's tyrosine kinase inhibitors” (Henan Zhiwei Biomedicine Co., Ltd., priority 2019, dated 2025):
# Target: T1, BTK (Homo sapiens (Human), UniProt Q06187)
# Test: BTK inhibition assay by Reaction Biology Corporation (33P-ATP, filter-binding)
# Type: biochemical
# Details: footnote a: from Reaction Biology Corporation
# Experimental: (§1) BTK inhibition Assay and selectivity Assay The assay was conducted either a by a third party (Reaction Biology Corporation, PA, USA) or in house.
# a) Reagent and Procedure by Reaction Biology Corporation:
# Base Reaction buffer; 20 mM Hepes (pH 7.5), 10 mM MgCl2, 1 mM EGTA, 0.02%. Brij35, 0.02 mg/ml BSA, 0.1 mM Na3VO4, 2 mM DTT, 1% DMSO. Required cofactors were added individually to each kinase reaction. Compound handling: testing compounds were dissolved in 100% DMSO to specific concentration. The serial dilution was conducted by Integra Viaflo Assist in DMSO.
# The substrate was prepared in freshly prepared reaction buffer of above and required cofactors were added to the substrate solution. The kinase was delivered to the substrate solution and the mixture was gently mixed. Testing compounds in 100% DMSO was added to the kinase reaction mixture by Acoustic technology (Echo550; nanoliter range) and the new mixture was incubated for 20 min at room temperature. Then ^33P-ATP (Specific activity 10 μCi/μl) was added to the reaction mixture to initiate the reaction and the mixture was incubated for 2 hours at room temperature. The radioactivity was detected by filter-binding method and the kinase activity data was expressed as the percent of remaining kinase activity in test sample compared to vehicle (dimethyl sulfoxide) reaction. IC50 values and curve fits were obtained using Prism (GraphPad Software). The result is outlined in Table-I
# T1 sequence (Q06187 whole entry): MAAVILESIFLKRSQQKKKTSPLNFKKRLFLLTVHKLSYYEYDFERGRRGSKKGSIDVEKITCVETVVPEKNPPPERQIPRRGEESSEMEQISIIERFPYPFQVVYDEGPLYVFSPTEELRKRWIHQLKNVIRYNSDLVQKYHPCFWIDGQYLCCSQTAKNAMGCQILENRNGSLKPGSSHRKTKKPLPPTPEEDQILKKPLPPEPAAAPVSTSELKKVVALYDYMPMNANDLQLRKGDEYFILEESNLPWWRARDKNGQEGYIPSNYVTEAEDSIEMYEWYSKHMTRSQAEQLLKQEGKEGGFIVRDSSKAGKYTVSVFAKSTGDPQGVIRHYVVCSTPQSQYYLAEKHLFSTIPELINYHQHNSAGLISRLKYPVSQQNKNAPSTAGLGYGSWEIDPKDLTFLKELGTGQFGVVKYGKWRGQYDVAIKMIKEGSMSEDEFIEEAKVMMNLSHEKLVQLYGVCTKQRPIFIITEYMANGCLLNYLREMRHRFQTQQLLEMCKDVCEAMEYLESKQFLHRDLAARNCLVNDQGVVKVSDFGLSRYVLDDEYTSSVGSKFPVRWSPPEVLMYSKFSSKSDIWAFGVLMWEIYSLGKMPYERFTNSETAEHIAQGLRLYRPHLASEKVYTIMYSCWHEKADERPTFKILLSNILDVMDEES
row,IC50,Compound
1,22.6 nM,"CC#CC(=O)N1CCCC[C@H]1c1nc(-c2ccc(C(=O)Nc3cc(Br)ccn3)cc2)c(C(N)=O)n1N [Example 88, (S)-1-amino-4-(4-((4-bromopyridin-2-yl)carbamoyl)phenyl)-2-(1-(but-2-ynoyl)piperidin-2-yl)-1H-imidazole-5-carboxamide]"
2,11 nM,"C=CC(=O)N1CCCC[C@H]1c1nc(-c2ccc(C(=O)Nc3cc(CC)ccn3)cc2)c(C(N)=O)n1NC [Example 81, (S)-2-(1-acryloylpiperidin-2-yl)-4-(4-((4-ethylpyridin-2-yl)carbamoyl)phenyl)-1-(methylamino)-1H-imidazole-5-carboxamide]"
3,14.6 nM,"C=CC(=O)N1CCC[C@@H](c2nc(-c3ccc(C(=O)Nc4cc(CC)ccn4)cc3)c(C(N)=O)n2N)C1 [Example 93, (R)-2-(1-acryloylpiperidin-3-yl)-1-amino-4-(4-((4-ethylpyridin-2-yl)carbamoyl)phenyl)-1H-imidazole-5-carboxamide]"
4,5920 nM,"N#CN1CCC[C@H]1c1nc(-c2ccc(C(=O)Nc3ccccn3)cc2)c(C(N)=O)n1N [Example 9, (S)-1-amino-2-(1-cyanopyrrolidin-2-yl)-4-(4-(pyridin-2-ylcarbamoyl)phenyl)-1H-imidazole-5-carboxamide]"

# Target: T1, BTK
# Test: In house ELISA kinase inhibition assay, BTK
# Type: biochemical
# Details: footnote b: from in house procedure (ELISA)
# Experimental: as §1
# b) In House Procedure for BTK, BMX, EGFR and ITK:
# Kinase inhibitory activities of compounds were evaluated using the Enzyme-linked immunosorbent assay (ELISA). The kinase enzyme of BTK, BMX, EGFR and ITK were purchased from Carna Bioscience (Kobe, Japan). A total of 10 ng/mL antiphosphotyrosine (PY713) antibody (abcam, Cambridge Science Park, UK) was precoated in 96-well ELISA plates. The kinase enzymes in each reaction well were set to BTK (101.25 ng/mL), BMX (90 ng/mL), EGFR (90 ng/mL) or ITK (120 ng/mL) and incubated with indicated drugs in 1× reaction buffer (50 mmol/L HEPES pH 7.4, 20 mmol/L MgCl2, 0.1 mmol/L MnCl2, 1 mmol/L DTT) containing 20 μmol/L (the final concentration of substrate in ITK reaction was 30 μmol/L) substrate (NH2-[…]-biotin) at 25° C. for 1 h. Then, a total of 3 μmol/L ATP was added and the reaction was continued for 2 h. The products of reaction were transferred into 96-well ELISA plates containing antibody and incubated at 25° C. for 30 min. After incubation, the wells were washed with PBS and then incubated with horseradish peroxidase (HRP)-conjugated streptavidin. The wells were visualized using 3,3′,5,5′-tetramethylbenzidine (TMB), and chromogenic reaction was ended with 2 mol/L H2SO4, the absorbance was read with a multimode plate reader (PerkinElmer, USA) at 450 nm. IC50 values and curve fits were obtained using Prism (GraphPad Software). (Table I-IV)
row,IC50,Compound
1,226 nM,"C=CC(=O)N1CCCCCC1c1nc(-c2ccc(C(=O)Nc3cc(CC)ccn3)cc2)c(C(N)=O)n1N (stereo not shown) [Example 94, 2-(1-acryloylazepan-2-yl)-1-amino-4-(4-((4-ethylpyridin-2-yl)carbamoyl)phenyl)-1H-imidazole-5-carboxamide]"
2,58.1 nM,"CC#CC(=O)N1CCCC[C@H]1c1nc(-c2ccc(C(=O)Nc3cc(C)ccn3)cc2)c(C(N)=O)n1N [Example 58, (S)-1-amino-2-(1-(but-2-ynoyl)piperidin-2-yl)-4-(4-((4-methylpyridin-2-yl)carbamoyl)phenyl)-1H-imidazole-5-carboxamide]"
3,22.8 nM,"CC#CC(=O)N1CCCC[C@H]1c1nc(-c2ccc(C(=O)Nc3cc(-c4ccc(C#N)cc4)ccn3)cc2)c(C(N)=O)n1N [Example 112, (S)-1-amino-2-(1-(but-2-ynoyl)piperidin-2-yl)-4-(4-((4-(4-cyanophenyl)pyridin-2-yl)carbamoyl)phenyl)-1H-imidazole-5-carboxamide]"
4,1270 nM,"C=C(F)C(=O)N1CCCC[C@H]1c1nc(-c2ccc(C(=O)Nc3cc(C)ccn3)cc2)c(C(N)=O)n1N [Example 59, (S)-1-amino-2-(1-(2-fluoroacryloyl)piperidin-2-yl)-4-(4-((4-methylpyridin-2-yl)carbamoyl)phenyl)-1H-imidazole-5-carboxamide]"
5,176 nM,"C=CC(=O)N1CCC(Cc2nc(-c3ccc(C(=O)Nc4ccccn4)cc3)c(C(N)=O)n2N)CC1 [Example 103, 2-((1-acryloylpiperidin-4-yl)methyl)-1-amino-4-(4-(pyridin-2-ylcarbamoyl)phenyl)-1H-imidazole-5-carboxamide]"
6,2280 nM,"CC#CC(=O)N1CCCC[C@H]1c1nc(-c2ccc(C(=O)Nc3cccnn3)cc2)c(C(N)=O)n1N [Example 102, (S)-1-amino-2-(1-(but-2-ynoyl)piperidin-2-yl)-4-(4-(pyridazin-3-ylcarbamoyl)phenyl)-1H-imidazole-5-carboxamide]"
7,45.6 nM,"CC#CC(=O)N1CCCC[C@H]1c1nc(-c2ccc(C(=O)Nc3cc(C#N)ccn3)cc2)c(C(N)=O)n1N [Example 82, (S)-1-amino-2-(1-(but-2-ynoyl)piperidin-2-yl)-4-(4-((4-cyanopyridin-2-yl)carbamoyl)phenyl)-1H-imidazole-5-carboxamide]"
8,79 nM,"C=CC(=O)N1CCC[C@H]1c1nc(-c2ccc(C(=O)Nc3cc(C)ccn3)cc2)c(C(N)=O)n1N [Example 10, (S)-2-(1-acryloylpyrrolidin-2-yl)-1-amino-4-(4-((4-methylpyridin-2-yl)carbamoyl)phenyl)-1H-imidazole-5-carboxamide]"
9,15 nM,"C=CC(=O)N1CCCC[C@H]1c1nc(-c2ccc(C(=O)Nc3cc(F)ccn3)cc2)c(C(N)=O)n1N [Example 106, (S)-2-(1-acryloylpiperidin-2-yl)-1-amino-4-(4-((4-fluoropyridin-2-yl)carbamoyl)phenyl)-1H-imidazole-5-carboxamide]"
10,43.9 nM,"Cc1ccnc(NC(=O)c2ccc(-c3nc([C@@H]4CCCCN4C(=O)/C=C/C(F)(F)F)n(N)c3C(N)=O)cc2)c1 [Example 60, (S,E)-1-amino-4-(4-((4-methylpyridin-2-yl)carbamoyl)phenyl)-2-(1-(4,4,4-trifluorobut-2-enoyl)piperidin-2-yl)-1H-imidazole-5-carboxamide]"
11,1.9 nM,"C=CC(=O)N1CCCC[C@H]1c1nc(-c2ccc(C(=O)Nc3cc(-c4ccc(Cl)cc4)ccn3)cc2)c(C(N)=O)n1N [Example 109, (S)-2-(1-acryloylpiperidin-2-yl)-1-amino-4-(4-((4-(4-chlorophenyl)pyridin-2-yl)carbamoyl)phenyl)-1H-imidazole-5-carboxamide]"
12,79.6 nM,"CC#CC(=O)N1CCCC[C@H]1c1nc(-c2ccc(C(=O)Nc3cc(OC)ccn3)cc2)c(C(N)=O)n1N [Example 68, (S)-1-amino-2-(1-(but-2-ynoyl)piperidin-2-yl)-4-(4-((4-methoxy-pyridin-2-yl)carbamoyl)phenyl)-1H-imidazole-5-carboxamide]"
13,19.2 nM,"C#CC(=O)N1CCCC[C@H]1c1nc(-c2ccc(C(=O)Nc3cc(C)ccn3)cc2)c(C(N)=O)n1N [Example 96, (S)-1-amino-4-(4-((4-methylpyridin-2-yl)carbamoyl)phenyl)-2-(1-propioloylpiperidin-2-yl)-1H-imidazole-5-carboxamide]"
14,577 nM,"CC#CC(=O)N1CCC[C@H]1c1nc(-c2ccc(C(=O)Nc3cc(C(F)(F)F)ccn3)cc2)c(C(N)=O)n1N [Example 43, (S)-1-amino-2-(1-(but-2-ynoyl)pyrrolidin-2-yl)-4-(4-((4-(trifluoro-methyl)pyridin-2-yl)carbamoyl)phenyl)-1H-imidazole-5-carboxamide]"
15,9.99 nM,"C#CC(=O)N1CCCC[C@H]1c1nc(-c2ccc(C(=O)Nc3cc(CC)ccn3)cc2)c(C(N)=O)n1N [Example 100, (S)-1-amino-4-(4-((4-ethylpyridin-2-yl)carbamoyl)phenyl)-2-(1-propioloylpiperidin-2-yl)-1H-imidazole-5-carboxamide]"
16,18.4 nM,"C=CC(=O)N1CCCC[C@H]1c1nc(-c2ccc(C(=O)Nc3ccc(C)cn3)cc2)c(C(N)=O)n1N [Example 61, (S)-2-(1-acryloylpiperidin-2-yl)-1-amino-4-(4-((5-methylpyridin-2-yl)carbamoyl)phenyl)-1H-imidazole-5-carboxamide]"
17,70.6 nM,"C=CC(=O)N1CCC[C@H]1c1nc(-c2ccc(C(=O)Nc3cc(F)ccn3)cc2)c(C(N)=O)n1N [Example 40, (S)-2-(1-acryloylpyrrolidin-2-yl)-1-amino-4-(4-((4-fluoropyridin-2-yl)carbamoyl)phenyl)-1H-imidazole-5-carboxamide]"
18,17.9 nM,"CC#CC(=O)N1CCCC[C@H]1c1nc(-c2ccc(C(=O)Nc3cc(CC)ccn3)cc2)c(C(N)=O)n1N [Example 77, (S)-1-amino-2-(1-(but-2-ynoyl)piperidin-2-yl)-4-(4-((4-ethylpyridin-2-yl)carbamoyl)phenyl)-1H-imidazole-5-carboxamide]"
19,70.7 nM,"COc1ccnc(NC(=O)c2ccc(-c3nc([C@@H]4CCCCN4C(=O)/C=C/C(F)(F)F)n(N)c3C(N)=O)cc2)c1 [Example 69, (S,E)-1-amino-4-(4-((4-methoxypyridin-2-yl)carbamoyl)phenyl)-2-(1-(4,4,4-trifluorobut-2-enoyl)piperidin-2-yl)-1H-imidazole-5-carboxamide]"
20,44.5 nM,"C=CC(=O)N1CCCC[C@H]1c1nc(-c2ccc(C(=O)Nc3cc(C)c(F)cn3)cc2)c(C(N)=O)n1N [Example 107, (S)-2-(1-acryloylpiperidin-2-yl)-1-amino-4-(4-((5-fluoro-4-methylpyridin-2-yl)carbamoyl)phenyl)-1H-imidazole-5-carboxamide]"
21,72.9 nM,"C=CC(=O)N1CCC[C@H]1c1nc(-c2ccc(C(=O)Nc3cc(OC)ccn3)cc2)c(C(N)=O)n1N [Example 28, (S)-2-(1-acryloylpyrrolidin-2-yl)-1-amino-4-(4-((4-methoxypyridin-2-yl)carbamoyl)phenyl)-1H-imidazole-5-carboxamide]"
